Converted amounts (≈) assume the structure as drawn. Read-outs that look alike come from different tables or passages of the source.
How the values were obtained:
Assay in all cases: Antibacterial activity (minimum inhibitory concentration), tube dilution method
Type in all cases: cell-based
[1] = test system: Staphylococcus aureus 209P
Method: (§1) The antibacterial activities of some typical compounds of this invention were measured by a tube dilution method in a brain heart infusion broth (pH 7.5) as a culture medium.

[2] = test system: Bacillus subtilis NRRL B558; conditions: for MIC: Bacillus subtilis
Method: as §1

[3] = test system: Staphylococcus aureus MS9861; conditions: for MIC: Staphylococcus aureus
Method: as §1

[4] = test system: Klebsiella pneumoniae PCI602
Method: as §1

[5] = tube dilution method, brain heart infusion broth (pH 7.5), read-out: minimum inhibitory concentration, Staphylococcus aureus 209P
[6] = NRRLB558, tube dilution method, brain heart infusion broth (pH 7.5), read-out: minimum inhibitory concentration, Bacillus subtilis NRRL B558
[7] = MS9861, tube dilution method, brain heart infusion broth (pH 7.5), read-out: minimum inhibitory concentration, Staphylococcus aureus MS9861
[8] = PCI602, tube dilution method, brain heart infusion broth (pH 7.5), read-out: minimum inhibitory concentration, Klebsiella pneumoniae PCI602
[9] = tube dilution method, brain heart infusion broth (pH 7.5)

SMILES | MIC [1, 5] | MIC [2, 6] | MIC [3, 7] | MIC [4, 8] | MIC ([1]; pH 7.5, read-out: minimum inhibitory concentration, Staphylococcus aureus 209P) | MIC ([2]; NRRLB558, pH 7.5, read-out: minimum inhibitory concentration, Bacillus subtilis NRRL B558, tube dilution method, brain heart infusion broth (pH 7.5)) | minimum inhibitory concentration, Bacillus subtilis NRRL B558 [2, 9] | MIC ([3]; MS9861, pH 7.5, read-out: minimum inhibitory concentration, Staphylococcus aureus MS9861, tube dilution method, brain heart infusion broth (pH 7.5)) | minimum inhibitory concentration, Staphylococcus aureus MS9861 [3, 9] | MIC ([4]; PCI602, pH 7.5, read-out: minimum inhibitory concentration, Klebsiella pneumoniae PCI602)
CCC1OC(=O)CC(O)C(C)C(OC2OC(C)C(OC3CC(C)(OC(C)=O)C(OC(=O)CC(C)C)C(C)O3)C(N(C)C)C2O)C(CC=O)CC(C)C(=O)C=CC(C)=CC1CO (centres unmarked) [(R2)=COCH3, R3=drawing 66, AR4=OH, 3"-O-acetyl-4"-O-isovaleryl-YO-9010] | 0.8 µg/mL (≈ 0.922 µM) | 0.4 µg/mL (≈ 0.461 µM) | 3.1 µg/mL (≈ 3.57 µM) | > 100 µg/mL | – | – | – | – | – | –
CCC1OC(=O)CC(O)C(C)C(OC2OC(C)C(OC3CC(C)(OC(C)=O)C(OC(=O)CC(C)C)C(C)O3)C(N(C)C)C2O)C(CC=O)CC(C)C(=O)C=CC(C)=CC1COC(C)=O (centres unmarked) [(R2)=COCH3, R3=drawing 75, AR4=OCOCH3] | 1.6 µg/mL (≈ 1.76 µM) | 1.6 µg/mL (≈ 1.76 µM) | 6.3 µg/mL (≈ 6.92 µM) | 25 µg/mL (≈ 27.5 µM) | – | – | – | – | – | –
CCC1OC(=O)CC(O)C(C)C(OC2OC(C)C(OC3CC(C)(O)C(O)C(C)O3)C(N(C)C)C2O)C(CC=O)CC(C)C(=O)C=CC(C)=CC1CO (centres unmarked) [Antibiotic YO9010, 23-demycinosyltylosin, reference compound] | 0.8 µg/mL (≈ 1.08 µM) | 1.6 µg/mL (≈ 2.16 µM) | 3.1 µg/mL (≈ 4.18 µM) | 12.5 µg/mL (≈ 16.8 µM) | – | – | – | – | – | –
CCC1OC(=O)CC(OC(C)=O)C(C)C(OC2OC(C)C(OC3CC(C)(O)C(OC(=O)CC(C)C)C(C)O3)C(N(C)C)C2O)C(CC=O)CC(C)C(=O)C=CC(C)=CC1CO (centres unmarked) [N-1 substance, 3-O-acetyl-4"-O-isovaleryl-YO-9010, reference compound] | 0.4 µg/mL (≈ 0.461 µM) | 0.8 µg/mL (≈ 0.922 µM) | 1.6 µg/mL (≈ 1.84 µM) | 3.1 µg/mL (≈ 3.57 µM) | – | – | – | – | – | –
CCC1OC(=O)CC(OC(C)=O)C(C)C(OC2OC(C)C(OC3CC(C)(O)C(OC(=O)CC(C)C)C(C)O3)C(N(C)C)C2O)C(CC=O)CC(C)C(=O)C=CC(C)=CC1CBr (centres unmarked) [R1=COCH3, R3=drawing 68, AR4=Br, 3-O-Acetyl-23-deoxy-23-bromo-4"-O-isovaleryl-YO-9010] | 1.6 µg/mL (≈ 1.72 µM) | 1.6 µg/mL (≈ 1.72 µM) | 3.1 µg/mL (≈ 3.33 µM) | > 100 µg/mL | – | – | – | – | – | –
CCC1OC(=O)CC(O)C(C)C(OC2OC(C)C(OC3CC(C)(O)C(OC(C)=O)C(C)O3)C(N(C)C)C2O)C(CC=O)CC(C)C(=O)C=CC(C)=CC1CO (centres unmarked) [R1=H, R3=COCH3, AR4=OH] | 1.6 µg/mL (≈ 2.04 µM) | 1.6 µg/mL (≈ 2.04 µM) | 25 µg/mL (≈ 31.9 µM) | 3.1 µg/mL (≈ 3.95 µM) | – | – | – | – | – | –
CCC1OC(=O)CC(O)C(C)C(OC2OC(C)C(OC3CC(C)(O)C(O)C(C)O3)C(N(C)C)C2O)C(CC=O)CC(C)C(=O)C=CC(C)=CC1CBr (centres unmarked) [R1=H, R3=H, AR4=Br, 23-Deoxy-23-bromo-YO-9010] | < 0.2 µg/mL | < 0.2 µg/mL | 0.8 µg/mL (≈ 0.994 µM) | 6.3 µg/mL (≈ 7.83 µM) | – | – | – | – | – | –
CCC1OC(=O)CC(O)C(C)C(OC2OC(C)C(OC3CC(C)(O)C(O)C(C)O3)C(N(C)C)C2O)C(CC=O)CC(C)C(=O)C=CC(C)=CC1CI (centres unmarked) [R1=H, R3=H, AR4=I, 23-Deoxy-23-iodo-YO-9010] | 0.4 µg/mL (≈ 0.47 µM) | < 0.2 µg/mL | 3.1 µg/mL (≈ 3.64 µM) | 6.3 µg/mL (≈ 7.4 µM) | – | – | – | – | – | –
CCC1OC(=O)CC(O)C(C)C(OC2OC(C)C(OC3CC(C)(O)C(O)C(C)O3)C(N(C)C)C2O)C(CC=O)CC(C)C(=O)C=CC(C)=CC1COC(C)=O (centres unmarked) [R1=H, R3=H, AR4=OCOCH3] | 0.4 µg/mL (≈ 0.51 µM) | 0.4 µg/mL (≈ 0.51 µM) | 1.6 µg/mL (≈ 2.04 µM) | 25 µg/mL (≈ 31.9 µM) | – | – | – | – | – | –
CCC1OC(=O)CC(O)C(C)C(OC2OC(C)C(OC3CC(C)(O)C(O)C(C)O3)C(N(C)C)C2O)C(CC=O)CC(C)C(=O)C=CC(C)=CC1CSC (centres unmarked) [R1=H, R3=H, AR4=SCH3, 23-Deoxy-23-methylthio-YO-9010] | 0.8 µg/mL (≈ 1.04 µM) | 0.8 µg/mL (≈ 1.04 µM) | 1.6 µg/mL (≈ 2.07 µM) | 6.3 µg/mL (≈ 8.16 µM) | – | – | – | – | – | –
CCC1OC(=O)CC(O)C(C)C(OC2OC(C)C(OC3CC(C)(O)C(O)C(C)O3)C(N(C)C)C2O)C(CC=O)CC(C)C(=O)C=CC(C)=CC1COC(=O)Cc1ccccc1 (centres unmarked) [R1=H, R3=H, AR4=drawing 71] | – | – | – | – | 0.4 µg/mL (≈ 0.465 µM) | < 0.2 µg/mL | 0.4 µg/mL (≈ 0.465 µM) | 1.6 µg/mL (≈ 1.86 µM) | 3.1 µg/mL (≈ 3.6 µM) | 6.3 µg/mL (≈ 7.33 µM)
CCC1OC(=O)CC(O)C(C)C(OC2OC(C)C(OC3CC(C)(O)C(O)C(C)O3)C(N(C)C)C2O)C(CC=O)CC(C)C(=O)C=CC(C)=CC1COC(=O)CSc1ccncc1 (centres unmarked) [R1=H, R3=H, AR4=drawing 72] | 0.8 µg/mL (≈ 0.896 µM) | < 0.2 µg/mL | 3.1 µg/mL (≈ 3.47 µM) | 12.5 µg/mL (≈ 14 µM) | – | – | – | – | – | –

From patent publication US4463171A, “Derivatives of macrolide antibiotics” (Sanraku-Ocean Co., Ltd., priority 1982, dated 1984)
